SMILES strings stand for the structures. Active and inactive are the calls of the source. The calls are words filed in the database; no cut-off is given here.

In general, IC50 refers to the concentration that inhibits the measured activity by half. As a reminder, the inhibition is the relative decrease from the control value, in per cent.

The target in data set [1] is T1, Pancreatic triacylglycerol lipase (Sus scrofa, UniProt P00591).
T1 sequence (P00591 whole entry): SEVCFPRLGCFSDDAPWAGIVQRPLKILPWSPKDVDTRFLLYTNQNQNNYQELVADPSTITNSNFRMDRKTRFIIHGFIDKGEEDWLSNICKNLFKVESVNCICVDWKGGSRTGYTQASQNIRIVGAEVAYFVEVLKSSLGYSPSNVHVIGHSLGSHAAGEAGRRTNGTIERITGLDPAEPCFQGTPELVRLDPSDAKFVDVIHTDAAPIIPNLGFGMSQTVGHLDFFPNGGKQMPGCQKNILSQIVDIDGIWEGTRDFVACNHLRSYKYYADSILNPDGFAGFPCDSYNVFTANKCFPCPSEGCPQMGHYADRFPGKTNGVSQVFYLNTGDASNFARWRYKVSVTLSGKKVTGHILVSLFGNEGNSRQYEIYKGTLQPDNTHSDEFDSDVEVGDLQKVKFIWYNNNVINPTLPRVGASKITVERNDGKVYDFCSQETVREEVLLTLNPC
As to the kind of experiment: Inhibition of porcine pancreatic lipase at 0.1 mg/ml using 4-MU oleate as substrate incubated for 30 min by fluorescence method relative to control. Particulars: pig, 0.5 h.

Another data set has as its target Beta-glucuronidase (Escherichia coli (strain K12), UniProt P05804). Description: Inhibition of Escherichia coli beta-glucuronidase using 4-methylumbelliferyl-beta-D-glucuronide hydrate as substrate preincubated for 5 mins followed by substrate addition and measured after 30 mins by fluorescence method.
The species named for data set [2] is Rattus norvegicus. Description: Inhibition of rat intestinal alpha-glucosidase at 1 mg/ml using pNPG as substrate preincubated for 3 mins followed by substrate addition and measured after 30 mins relative to control.
For data set [3], the target named is T1, Pancreatic triacylglycerol lipase. As to the kind of experiment: Inhibition of porcine pancreatic lipase up to 1 mg/ml using 4-MU oleate as substrate incubated for 30 min by fluorescence method relative to control. Particulars: pig, 0.5 h.
The target of data set [4] is T2, Pancreatic alpha-amylase (Sus scrofa, UniProt P00690).
T2 sequence (P00690 whole entry): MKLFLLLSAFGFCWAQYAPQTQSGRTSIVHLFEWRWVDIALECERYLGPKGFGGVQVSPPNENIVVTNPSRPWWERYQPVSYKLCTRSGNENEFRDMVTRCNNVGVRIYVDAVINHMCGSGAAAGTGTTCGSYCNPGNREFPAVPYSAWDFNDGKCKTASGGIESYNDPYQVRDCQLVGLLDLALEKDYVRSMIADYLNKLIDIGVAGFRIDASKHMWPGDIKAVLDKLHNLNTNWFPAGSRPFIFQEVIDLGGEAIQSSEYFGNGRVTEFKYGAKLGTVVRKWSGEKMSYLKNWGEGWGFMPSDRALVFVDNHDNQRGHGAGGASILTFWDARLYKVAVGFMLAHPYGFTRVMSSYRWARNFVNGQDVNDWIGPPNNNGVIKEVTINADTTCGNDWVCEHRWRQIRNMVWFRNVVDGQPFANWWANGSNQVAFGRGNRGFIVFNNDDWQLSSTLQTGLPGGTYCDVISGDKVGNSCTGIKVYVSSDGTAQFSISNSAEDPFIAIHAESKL
As to the kind of experiment: Inhibition of porcine pancreatic alpha-amylase at 1 mg/ml using potato starch as substrate preincubated for 5 mins followed by substrate addition and measured after 3 mins by DNS method relative to control. Particulars: pig, 0.05 h.

The target of data set [5] is Beta-glucuronidase (Escherichia coli (strain K12)) (UniProt P05804). Description: Potency index, ratio of DSA IC50 to compound IC50 for inhibition of Escherichia coli beta-glucuronidase using 4-methylumbelliferyl-beta-D-glucuronide hydrate as substrate preincubated for 5 mins followed by substrate addition and measured after 30 mins by fluorescence method.
Beta-glucuronidase (Escherichia coli (strain K12)), sequence (P05804 whole entry, looked up): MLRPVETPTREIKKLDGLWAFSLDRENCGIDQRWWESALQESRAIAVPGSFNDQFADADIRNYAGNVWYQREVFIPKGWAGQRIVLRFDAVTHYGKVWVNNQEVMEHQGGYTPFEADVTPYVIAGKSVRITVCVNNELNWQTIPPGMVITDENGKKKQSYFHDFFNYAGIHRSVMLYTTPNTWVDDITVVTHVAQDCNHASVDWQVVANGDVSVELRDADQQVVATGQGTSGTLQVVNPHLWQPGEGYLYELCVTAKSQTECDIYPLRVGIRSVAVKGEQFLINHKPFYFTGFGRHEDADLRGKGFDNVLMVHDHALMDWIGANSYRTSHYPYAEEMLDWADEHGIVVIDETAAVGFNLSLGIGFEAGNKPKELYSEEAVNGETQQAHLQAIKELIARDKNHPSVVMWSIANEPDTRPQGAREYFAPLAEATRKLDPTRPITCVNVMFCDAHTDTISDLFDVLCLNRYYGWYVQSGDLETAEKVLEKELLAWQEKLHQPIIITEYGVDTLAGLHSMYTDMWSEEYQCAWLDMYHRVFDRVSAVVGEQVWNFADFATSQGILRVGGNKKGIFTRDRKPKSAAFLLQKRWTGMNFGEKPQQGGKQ
Data set [6] concerns the target T2, Pancreatic alpha-amylase. As to the kind of experiment: Inhibition of porcine pancreatic alpha-amylase at 0.1 to 0.5 mg/ml using potato starch as substrate preincubated for 5 mins followed by substrate addition and measured after 3 mins by DNS method. To be noted: pig, 0.05 h.
Data set [7] is filed under the species Rattus norvegicus. As to the kind of experiment: Inhibition of rat intestinal alpha-glucosidase at 0.5 mg/ml using pNPG as substrate preincubated for 3 mins followed by substrate addition and measured after 30 mins.
In data set [8] the target is T1, Pancreatic triacylglycerol lipase. As to the kind of experiment: Inhibition of porcine pancreatic lipase at 5 ug/ml using 4-MU oleate as substrate incubated for 30 min by fluorescence method relative to control. To be noted: pig, 0.5 h.
Data set [9] concerns the target T2, Pancreatic alpha-amylase. Description: Inhibition of porcine pancreatic alpha-amylase at 10 ug/ml using potato starch as substrate preincubated for 5 mins followed by substrate addition and measured after 3 mins by DNS method relative to control. Particulars: pig, 0.05 h.
The species named for data set [10] is Rattus norvegicus. Description: Inhibition of rat intestinal alpha-glucosidase at 0.02 mM using pNPG as substrate preincubated for 3 mins followed by substrate addition and measured after 30 mins relative to control.

Beta-glucuronidase, sequence (P05804 whole entry): as the sequence (P05804 whole entry, looked up) above

Consider `OC[C@H]1Oc2ccc([C@@H]3OC[C@@H]4[C@H]3CO[C@H]4c3ccc4c(c3)O[C@H](c3ccc(O)c(O)c3)[C@@H](CO)O4)cc2O[C@@H]1c1ccc(O)c(O)c1`, for which the “inhibition (INH)” value is less than 56% in [1], 85 to 93% in data set [3], 21% on Pancreatic alpha-amylase [4] and “Not Active” at Pancreatic alpha-amylase [6]. Besides, on Beta-glucuronidase, the IC50 was 0.62 µM. The inhibition entry in the data set listed under Rattus norvegicus [2] and in the data set filed under Rattus norvegicus [7] was “inactive” in each case. Further, in [5], the Ratio IC50 lay in the range of 3.5 to 39.5.

As for `CCCCCCCCCCC[C@@H](C[C@@H]1OC(=O)[C@H]1CCCCCC)OC(=O)[C@H](CC(C)C)NC=O` [ORLISTAT], in data set [8], the “inhibition (INH)” value was found to be 96%.

Regarding `OC/C=C/c1ccc2c(c1)O[C@H](c1ccc3c(c1)O[C@@H](c1ccc(O)c(O)c1)[C@H](CO)O3)[C@@H](CO)O2`, the “inhibition (INH)” value is less than 56% in data set [1], 85 to 93% in data set [3] and “Not Active” against Pancreatic alpha-amylase [6]. On Beta-glucuronidase, this compound yielded a 50% inhibitory concentration (IC50) of 6.91 µM. In the data set listed under Rattus norvegicus [2], this compound returned an inhibition of 12%. Further, the Ratio IC50 in data set [5] was 3.5 to 39.5. In addition, the inhibition result in the data set filed under Rattus norvegicus [7] is “inactive”.

Consider `OC/C=C/c1ccc2c(c1)O[C@@H](CO)[C@H](c1ccc3c(c1)O[C@H](CO)[C@@H](c1ccc(O)c(O)c1)O3)O2`, for which the “inhibition (INH)” value in [1] is less than 56%; in data set [3], 85 to 93%; against Pancreatic alpha-amylase [4], 21%; at Pancreatic alpha-amylase [6], “Not Active”. In addition, inhibition on Beta-glucuronidase was half-maximal at 4.02 µM (IC50). The inhibition result in the data set listed under Rattus norvegicus [2] and in the data set filed under Rattus norvegicus [7] was “inactive” throughout. Besides, the Ratio IC50 in data set [5] was 3.5 to 39.5.

Consider `C[C@H]1O[C@H](O[C@H]2[C@H](O)[C@@H](O)[C@@H](O[C@H]3[C@H](O)[C@@H](O)C(O)O[C@@H]3CO)O[C@@H]2CO)[C@H](O)[C@@H](O)[C@@H]1N[C@H]1C=C(CO)[C@@H](O)[C@H](O)[C@H]1O` (stereo not given in full) [ACARBOSE], for which the “inhibition (INH)” value on Pancreatic alpha-amylase [9] was found to be 94%. Also, the inhibition in the data set listed under Rattus norvegicus [10] came out at 80%.

`O=C(O)[C@@H](O)[C@H]1OC(=O)[C@H](O)[C@H]1O` showed an IC50 on Beta-glucuronidase of 24.3 µM.

For `OC[C@@H]1Oc2cc([C@@H]3OC[C@@H]4[C@H]3CO[C@H]4c3ccc4c(c3)O[C@@H](CO)[C@H](c3ccc(O)c(O)c3)O4)ccc2O[C@H]1c1ccc(O)c(O)c1`, the “inhibition (INH)” value in data set [1] is less than 56%; in [3], 85 to 93%; on Pancreatic alpha-amylase [4], 21%; against Pancreatic alpha-amylase [6], “Not Active”. The same compound came in with an IC50 on Beta-glucuronidase of 0.95 µM. Also, the inhibition result in the data set listed under Rattus norvegicus [2] and in the data set filed under Rattus norvegicus [7] was “inactive” in each case. Moreover, the Ratio IC50 in [5] fell in the range of 3.5 to 39.5.
